# Earlier results as cited in patent publication US9427470B2, “Hyaluronic acid stabilizer” (priority 2012, dated 2016).
# Target: CD44 (Homo sapiens, UniProt P16070)
# Conditions: Aruffo, et al., 1990
# Sequence of CD44 (P16070 21-742, species assumed): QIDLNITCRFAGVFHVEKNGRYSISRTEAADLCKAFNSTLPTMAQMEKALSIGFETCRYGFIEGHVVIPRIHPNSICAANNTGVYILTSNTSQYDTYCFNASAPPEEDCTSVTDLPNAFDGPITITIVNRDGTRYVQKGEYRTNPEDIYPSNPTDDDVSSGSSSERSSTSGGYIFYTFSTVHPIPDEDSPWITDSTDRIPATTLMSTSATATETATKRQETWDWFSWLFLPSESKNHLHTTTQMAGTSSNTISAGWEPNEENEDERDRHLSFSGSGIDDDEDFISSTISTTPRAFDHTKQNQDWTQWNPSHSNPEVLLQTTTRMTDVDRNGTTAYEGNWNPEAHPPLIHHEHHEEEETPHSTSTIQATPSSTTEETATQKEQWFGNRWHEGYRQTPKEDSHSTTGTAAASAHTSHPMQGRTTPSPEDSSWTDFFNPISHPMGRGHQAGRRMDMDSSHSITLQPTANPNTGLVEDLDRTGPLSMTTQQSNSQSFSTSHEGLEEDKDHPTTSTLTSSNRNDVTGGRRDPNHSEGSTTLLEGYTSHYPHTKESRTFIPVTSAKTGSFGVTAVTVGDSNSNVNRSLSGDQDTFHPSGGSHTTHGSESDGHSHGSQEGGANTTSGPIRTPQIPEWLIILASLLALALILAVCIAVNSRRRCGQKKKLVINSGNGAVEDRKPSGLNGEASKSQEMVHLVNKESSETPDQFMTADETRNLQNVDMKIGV
substance,measurement,value
Hyaluronic acid [HA],strength of bond to CD44 relative to chondroitin sulfate,about 100 times
